From a melting point compilation (Tetko et al.; mined from patent text by program, amines drawn as free bases though some values may be those of a salt)

Row | Structure (SMILES) | melting point [°C]
1 | CNC(=O)CCC(=NNC(N)=S)c1ccccc1 | 205 to 207
2 | COc1ccc(C2CNC(=O)O2)cc1O (configuration not stated) | 157 to 160
3 | Fc1cccc(-c2sc(-c3ccccc3)cc2-c2ccccc2)c1 | 118 to 119
4 | O=C(NC(Cc1ccc(OCc2ccc(F)cc2)cc1)C(=O)O)c1cc2ccc(-c3ccc(Cl)cc3)cc2o1 (configuration not stated) | 166 to 168
5 | CCc1c(C)[nH]c(=O)n(-c2cc(C(=O)OC(C)C)c(Cl)cc2F)c1=O | 176 to 178
6 | Cc1ccc(C(=O)CCCCC(=O)O)cc1 | 147 to 148
7 | N#CCC(C#N)NNc1c(Cl)cc(C(F)(F)F)cc1Cl (configuration not stated) | 101 to 102
8 | COC(=O)COc1c(OC)cc(C=O)cc1OC | 99 to 100
9 | CCCn1c(=O)[nH]c2ccc(C(=O)c3nc(Br)c4ccccn34)cc2c1=O | 322
10 | CCc1cc(CC)c(N)cc1N | 49 to 51
11 | CCOc1cc2c(cc1OC)CCN(c1nc(N)c3cc(OC)c(OC)cc3n1)C2 | 258 to 260
12 | N#CCc1cccc2cnccc12 | 130 to 131
13 | FC(F)(F)c1cc(Nc2cc[nH]n2)nc(-c2cccnc2)n1 | 230
14 | NC(=C[N+](=O)[O-])NC1CCCCCC1 | 118 to 125
15 | CSC1C(=O)Nc2cccc([N+](=O)[O-])c21 (configuration not stated) | 228 to 230
16 | CN1C(=O)COc2cc3c(cc21)C1(CO3)C(=O)Nc2ccccc21 (configuration not stated) | > 250
17 | Cn1c(Cc2ccccc2)noc1=O | 105 to 107
18 | Cc1c(-c2cncnc2)ssc1=S | 184
19 | Cc1csc(C2=NOCCO2)c1Br | 67
20 | Oc1ccc2c(c1)OC1(CCCCCC1)O2 | 80 to 82
21 | CCCCn1nc(CCC)nc1Cc1ccc(-c2ccccc2-c2nnn[nH]2)nc1 | 164 to 166
22 | O=C1CC(c2ccccc2)Cc2c1ccn2Cc1ccccc1 (configuration not stated) | 122 to 123

Row | Structure (SMILES) | melting point [°C]
23 | O=S(=O)(Oc1ccccc1)c1ccc(O)cc1 | 114 to 116
24 | CON=C(Cl)c1ccccc1S(N)(=O)=O | 155 to 158
25 | CC1(C)OC(=O)C(COS(C)(=O)=O)(c2ccc(Cl)cc2Cl)O1 (configuration not stated) | 98 to 100
26 | O=C(O)c1cc(Br)cc(OCc2ccccc2Cl)c1OCc1ccccc1Cl | 186 to 187
27 | O=c1[nH]nc2n1-c1ccc(Cl)nc1C(c1ccccc1)=[N+]([O-])C2 | 268 to 270
28 | O=[N+]([O-])c1cc(C(F)(F)F)ccc1S(=O)(=O)NCC(O)(Cn1cncn1)c1ccc(Cl)cc1Cl (configuration not stated) | 97 to 105
29 | O=C1c2ccccc2C(=O)N1Cc1cc(=O)c(OC(c2ccccc2)c2ccccc2)cn1OC(c1ccccc1)c1ccccc1 | 145 to 147
30 | C#CC(C)Oc1cc(Cc2cnc(N)nc2N)cc(OC)c1OC (configuration not stated) | 153 to 155
31 | COC(=O)c1cc(Cl)ccc1OCc1ccccc1 | 54.5 to 55
32 | CCCN1CC(c2cccc(Cl)c2)=C(c2ccc(S(N)(=O)=O)cc2)C1=O | 149 to 150
33 | CC(C)(C)OC(=O)[C@@H](N)Cc1cc(I)c(O)c(I)c1 | 165 to 168
34 | CC(C)c1nc(CCOC(=O)OCCc2nc(C(C)C)c(Sc3cc(Cl)cc(Cl)c3)n2C)n(C)c1Sc1cc(Cl)cc(Cl)c1 | 157 to 159
35 | CCCc1nc2c(N)nc3cccnc3c2n1CCCCS(=O)(=O)N(C)C | 162 to 163
36 | CCOC(=O)CCn1cnc2c1N=CNC2N (configuration not stated) | 166 to 167
37 | O=C(O)C1=Cc2cc(Cl)c(Cl)cc2SC1C(F)(F)F (configuration not stated) | 262 to 264
38 | CN(C(=O)Cc1ccc(Cl)c(Cl)c1)[C@@H]1Cc2ccccc2C[C@H]1N1CCCC1 (relative stereo) | 161 to 164
39 | Cc1cc(O)nc(Br)c1 | 152
40 | CCc1c(C(=O)c2ccc(OC)cc2)c2cccc3c2n1C(CN1CCOCC1)CO3 (configuration not stated) | 186 to 187
41 | CCOC(=O)Oc1cc2occ(C(=O)Cl)c(=O)c2cc1OC(=O)OCC | 89 to 92
42 | O=C(O)CCCCCCC=C(c1ccccc1)c1ccccc1 | 77.5 to 78.5
43 | COc1ccc(-c2nc3cc(OC)cc(-c4ccccc4)c3o2)cc1 | 92
44 | CCCN1C(=O)CN=C(N2CCCCCC2)c2ccccc21 | 115 to 118

Row | Structure (SMILES) | melting point [°C]
45 | CCCCSCC(=O)N(Cc1cccnc1)C(C)(C)C | 55 to 56
46 | CCOC(=O)c1cn(-c2nccs2)c2nc(Cl)cc(Cl)c2c1=O | 226 to 227
47 | CCCC1(C(=O)O)CCCCC1 | 58 to 59
48 | OCCc1nccn1CCCc1cccc(O)c1 | 111 to 113
49 | c1ccc2c(c1)N[C@H]1CCNCC[C@@H]21 (relative stereo) | 102 to 114
50 | O=C(O)CP(=O)(O)CCNC(=O)c1ccccc1 | 54 to 57
51 | COc1ccc2[nH]c3cc(-c4cccc([N+](=O)[O-])c4)c4c(c3c2c1)C(=O)NC4=O | > 340
52 | CCn1ccc2c(ccc3[nH]cc(CCN)c32)c1=O | 224 to 227
53 | CSc1nc2cc(C(F)(F)F)ccc2n1NC(C)=O | 175 to 178
54 | COC1=C(OC)C(=O)C(CCCCCCCCCCCCCCCCCCCCCC(=O)O)=C(C)C1=O | 86 to 87
55 | O=c1[nH]c2c(Cl)sc(Cl)c2c(=O)c2cscc12 | 236 to 239
56 | CSc1nc(N)c(C#N)nc1C#N | 250 to 252
57 | CCSc1nc2c(C(=S)OC)sc(C)c2[nH]1 | 170 to 172
58 | CCCC(=O)CC1NC(=O)c2ccsc2-n2cccc21 (configuration not stated) | 186
59 | O=C(OCCCCCCO)c1ccc(Oc2c3c(c(Oc4ccc(C(=O)OCCCCCCO)cc4)c4ccccc24)C(=O)c2ccccc2C3=O)cc1 | 172 to 173
60 | O=Cc1cc2cc(OCc3ccccc3)c(F)cc2nc1I | 210
61 | CC(C)(C)c1ccc(COCCCCCCNC(=O)c2cc(-c3cccc(C(F)(F)F)c3)c(OCC(=O)O)c(-c3cccc(C(F)(F)F)c3)c2)cc1 | 156 to 158
62 | CCOC(=O)c1c(CI)nc2cc(OC)c(OC)cc2c1-c1ccc(OC)c(OC)c1 | 170 to 171
63 | Nc1ccc2c(S(=O)(=O)c3ccccc3)c[nH]c2c1 | 144 to 146
64 | Cc1cccc(C)c1N(CCCC(=O)N[C@@H](CO)C(=O)O)C(=O)c1ccc(Cl)cc1 | 147 to 148
65 | CC(CC(=O)O)(c1ccc(OCc2ccc3ccccc3n2)cc1)c1ccc(OCc2ccc3ccccc3n2)cc1 | 94 to 96

Results, then the molecule that gave them:

Row | melting point [°C] | Structure (SMILES)
66 | 154 to 155 | CCCCc1nc(Cl)c(C(=O)OC)n1Cc1ccc(-c2ccccc2C(=O)O)cc1
67 | 221 to 223 | Cc1cc(Nc2nccc(-c3sc(N)nc3C)n2)ccc1N1CCCCC1
68 | 155 to 156 | CCOC(=O)Cc1ccc(NC(=O)C(COS(C)(=O)=O)NS(=O)(=O)c2ccc(Br)cc2)cc1 (racemic)
69 | > 300 | O=C1NCN2c3ccccc3Oc3cccc1c32
70 | 115 to 119 | Cc1noc(C)c1C(=O)Nc1ccc(-n2nc(C3CC3)cc2C2CC2)cc1
71 | 210 to 211 | N#CC(NC(=O)c1cccn2cc(-c3ccccc3)nc12)c1cccc(Cl)c1 (configuration not stated)
72 | 203 to 205 | CNc1nc2ccc(CCc3nc4cc(C)ccn4c3C)cc2o1
73 | 196 to 198 | COC(=O)c1ccc(-c2n[nH]c(C)n2)cc1Cl
74 | 112 | CCCCc1cc2ccccc2c(Cc2ccc(C(=O)O)cc2)n1
75 | 105 | Cc1cc(C)c(=O)n(C(C(=O)NS(=O)(=O)c2ccc(C(C)C)cc2)c2ccc3c(c2)OCO3)n1 (configuration not stated)
76 | 171 to 172 | Cc1nc(Br)cnc1NS(=O)(=O)c1cccc2c(N(C)C)cccc12
77 | 170 to 171 | CCC(=O)NC1=NN(c2ccccc2)CC1
78 | 106 to 110 | C[C@@H](NC(=O)c1ccc(-c2cc(C(F)(F)F)nn2C)s1)[C@](O)(Cn1cncn1)c1ccc(F)cc1F
79 | 139 | COC(=O)C1=C(C)NC(C)=C(C(=O)OCC(C)=O)C1c1cccc([N+](=O)[O-])c1 (configuration not stated)
80 | 131 | COc1ccccc1-c1ccc(C[C@H](NC(=O)c2c(Cl)cccc2Cl)C(=O)O)cc1Cl
81 | 142 to 143 | CCN(CC)CCNC(=O)Cn1c(-c2ccc(Cl)cc2)nc2cccnc21
82 | 57 to 60 | COc1ccc(Cl)cc1[C@]1(F)C(=O)N(C(=O)NC(C)(C)C(=O)O)c2cc(C(F)(F)F)ccc21
83 | 269 to 271 | CN(C)c1ccc(-c2cc3nccnc3[nH]2)cc1CCC(=O)O
84 | 124 to 125 | COc1ccc2cc(Br)ccc2c1C(=O)N(C)C

Row | melting point [°C] | Structure (SMILES)
85 | 196 to 198 | COc1ccc(N2C(=O)C3=C(SCCS3)C2OC(=O)N2CCN(C)CC2)nn1 (configuration not stated)
86 | 224 to 226 | COC(=O)c1cccc2c(=O)c3cc(I)ccc3[nH]c12
87 | 157 to 161 | CON=C(C(C)=NN=Cc1ccccc1-n1c(OC)nn(C)c1=O)c1cccc(C(F)(F)F)c1
88 | 73 to 75 | CCOC(=O)C(Cc1ccc(Cl)cc1)NC(=S)Nc1ccc(C(C)C)cc1 (configuration not stated)
89 | 136 to 137 | CC(=O)Nc1cc2c(cc1C#N)C=CC(C)(C)O2
90 | 156 to 157 | COC(=O)C1=CCCn2c(=O)c3ccccc3c(=O)n21
91 | 144 to 145 | Cc1cccc(COc2cccc(OCc3nc(-c4ccccc4)oc3C)c2)c1C(=O)O
92 | 138 to 140 | CCn1c(-c2c(Cl)cccc2Cl)nc(-c2ccnc(OC)c2)c1-c1ccc(Cl)cc1
93 | 184 to 185 | Cc1ccc(C)n1-c1ccc(C=CC(=O)O)cc1
94 | 128 to 130 | COC(=O)C(C)(C)OCc1cc2cc(C(F)(F)F)ccc2n1S(=O)(=O)c1ccc2c(c1)OCCO2
95 | 216 to 218 | CNc1nc2ccccc2c2c1ncn2C
96 | 56 to 58 | Cc1cc(N)nc(CCCCNC(=O)Cc2ccc3c(c2)OCO3)c1
97 | 285 to 286 | Cc1ccc2ncn(-c3nnn[nH]3)c(=O)c2c1
98 | 91 to 92 | CCOC(=O)C=Cc1cccc(OCc2nc(-c3ccccc3)oc2C)c1
99 | 249 to 250 | Cc1cccc(Nc2nc(-n3nc(C)cc3C)nc3ccccc23)c1
100 | 168 to 170 | Cc1nc(Nc2ccccc2)sc1-c1ccncc1
101 | 103 to 120 | O=C(c1ccc2ccccc2c1)C(O)O
102 | 167 to 168 | Cc1cc(O)ccc1C(=O)N1CCN(C)CC1
